Assay results from US8557811B2, “Dual-color imaging method of sodium/calcium activities using two-photon fluorescent probes and preparation method of two-photon fluorescent probes” (Ajou University Industry—Academic Cooperation Foundation, priority 2010, dated 2013).
Where “and” joins values, the source holds several entries; their conditions need not be identical. Identical values can stand only once.

What was measured:
[1] = Two-photon absorption cross section by femtosecond fluorescence spectroscopy; type: physicochemical; conditions: for λ^(2)max two-photon excitation wavelength: with cation (BCa1 + Ca2+, ANa1 + Na+); for δΦ two-photon operational cross section: with cation (BCa1: MOPS buffer with excess Ca2+; ANa1 + Na+), error range ±15%
Method: Two-photon operational emission δΦ of BCa1 in the MOPS buffer containing excess Ca^2+ was 150 GM at 780 nm, 3- to 5-fold improved over Calcium-Green-Ca^2+ or Fura-2-Ca^2+ (see FIG. 7). Thus, it can be seen that staining of cells with BCa1 can provide brighter TPM images as compared to other commercially available probes.
TPA cross section (6) was measured by femtosecond (fs) fluorescence spectroscopy. BCa1 was dissolved in 30 mM MOPS buffer (2.5 mM CaCl2, 100 mM KCl, pH 7.2) to a concentration of 5.0×10^−6 M, and two-photon excited fluorescence (TPEF) was measured at 740 to 940 nm using fluorescein (8.0×10^−6M, pH=11). TPEF intensity of reference and sample was determined at the same excitation wavelength. TPA cross section was calculated by Equation 1. δ=δr(Ssφrfrcr)/(Srφsfscs) [Equation 1]
In Equation 1, s and r respectively stand for sample and reference molecules, S represents the intensity of a signal collected by the CCD detector, Φ represents the fluorescence quantum yield, f represents the overall fluorescence collection efficiency of the experimental apparatus, c represents molecular density in the solution, and δr represents the TPA cross section of reference molecules.

[2] = Fluorescence response of ANa1 to Na+ in buffer; type: binding
[3] = Spectroscopic measurements (absorption, emission, fluorescence quantum yield); type: physicochemical; conditions: for Φ fluorescence photon efficiency: error range ±10%
Method: Absorption spectra were measured using a Hewlett-Packard 8453 diode array spectrophotometer, and fluorescence spectra were measured using an Amico-Bowman series 2 emission spectrometer having 1 cm standard quartz cell. Fluorescence quantum yield was determined using coumarin 307 (Φ=0.95 in MeOH) according to a previously known method.
Normalized absorption spectra of BCa1 in 1,4-dioxane, EtOH, DMF and H2O are shown in FIG. 2 (a), and normalized emission spectra of BCa1 in 1,4-dioxane, EtOH, DMF and H2O are shown in FIG. 2 (b).

[4] = in MeOH; cited from earlier work
[5] = Relative fluorescence intensity for various cations; conditions: 1 μM BCa1
Method: (§1) Relative fluorescence intensity of 1 μM BCa1 for various cations are shown in FIG. 6 (a), and the effect of pH on one-photon fluorescence intensity of BCa1 is shown in FIG. 6 (b). […] Thus, the probe allows selective detection of Ca^2+ without minimized interference from other biologically relevant cations.

[6] = Water solubility from fluorescence intensity versus dye concentration; type: physicochemical; conditions: H2O with DMSO at 0.20; highest concentration in the linear region; excitation 360 nm
Method: A stock solution (1.0×10^−2M) was prepared by dissolving the dye (BCa1) in DMSO. The solution was diluted (to 6.0×10^−3 to 6.0×10^−5 M) and transferred to a cuvette holding H2O (3.0 mL) using a microsyringe. In all cases, the concentration of DMSO in H2O was maintained at 0.20. […] The highest concentration in the linear region was determined as the solubility of BCa1, which was about 5.0 μM in water, being sufficient to stain cells.
One-photon fluorescence spectra of BCa1 are shown in FIG. 1 (a), and the fluorescence intensity of BCa1 in H2O depending on concentrations is shown in FIG. 1 (b). Excitation wavelength was 360 nm.

[7] = Two-photon measurement in BCa1-labeled HeLa cells; type: cell-based
Method: HeLa cells were cultured in Dulbecco's modified Eagle's medium (DMEM; Gibco) supplemented with heat-inactivated 10% (v/v) fetal bovine serum (FBS; Gibco), 100 units/mL penicillin and 100 μg/mL streptomycin. The cells were grown under a humidified environment at 37° C. with air/CO2=95:5. Four days before imaging, the cells were harvested with a trypsin-EDTA solution and were transferred to a glass-bottomed dish (MatTek) with […]. The cells were treated at 37° C. for 20 minutes with 2 μM ANa1, and then loaded with 0.5 μM BCa1 at room temperature. 10 minutes later, the cells were imaged after washing 2 times with a reduced calcium-balanced salt solution (RCBSS; 127 mM NaCl, 3.8 mM KCl, 1.2 mM KH2PO4, 0.8 mM MgCl2, 5 mM glucose and 10 mM HEPES buffer).
Two-photon fluorescence microscopic images of the probe-labeled HeLa cells and tissues were obtained using spectral confocal and multiphoton microscopes (Leica TCS SP2).

[8] = Fluorescence titration with free Ca2+ in MOPS buffer (one-photon and two-photon); type: binding
Method: This is caused by the blocking of photo-induced electron transfer (PET) resulting from complexation with the metal ions.
One-photon absorption curves of 1 μM BCa1 (30 mM MOPS, 100 mM KCl, pH 7.2) complex in the presence of free Ca^2+ are shown in FIG. 5 (a), one-photon and two-photon fluorescence titration curves are shown in FIG. 5 (b), and one-photon and two-photon Hill curves are shown in FIG. 5 (c).
The dissociation constants of BCa1 for the one-photon and two-photon processes (K^OPd and K^TPd) were calculated from the fluorescence titration curves of FIG. 5 (b).

[9] = Effect of pH on one-photon fluorescence intensity; type: physicochemical
Method: as §1

[10] = One-photon fluorescence of BCa1 with free Ca2+ in LUVs; type: binding; conditions: LUVs of DOPC/sphingomyelin/CHL (1:1:1, raft mixture), free Ca2+ 2.5 mM, 25±0.5° C.
Method: LUVs for the measurement of one-photon and two-photon spectra were prepared from a hydrated suspension of multilamellar vesicles by means of extrusion. Lipids were dissolved in CHCl3/MeOH (95/5 vol %) and then dried under N2 flow in vacuum. The resulting film was hydrated in MOPS buffer (30 mM MOPS, 100 mM KCl, pH 7.2) by shaking at 60° C. until the suspension became homogeneous. The mixture was subjected to 3 freeze-thaw cycles, and LUVs were extruded therefrom by passing through a membrane having 100 nm pores (Avanti Polar Lipids). To stain the vesicles, BCa1 dissolved in DMSO was added and then 30 minutes was allowed to pass. The proportion of the vesicles to the probe was 300:1. Temperature was measured using a digital thermometer having a precision of 0.1° C.
One-photon fluorescence spectra of complexes of free Ca^2+ (0 to 2.5 mM) and 1 μM BCa1 for LUVs composed of DOPC/sphingomyelin/cholesterol (1:1:1, raft mixture) are shown in FIG. 8 (a), and Hill curves are shown in FIG. 8 (b).
Normalized emission spectra of BCa1 containing free Ca^2+ (2.5 mM) in LUVs composed of DPPC/CHL (black curve), DOPC/sphingomyelin/CHL (1:1:1, raft mixture, blue curve) and DOPC (pink curve) at 25±0.5° C. are shown in FIG. 9 (a), and normalized emission spectra of BCa1 in HeLa cells are shown in FIG. 9 (b). […]

[11] = two-photon process (value in parentheses)
[12] = with cation (BCa1 + Ca2+, ANa1 + Na+)

Row | Structure (SMILES) | λ^(2)max two-photon excitation wavelength [1] [nm] | δΦ two-photon operational cross section [1] [GM] | FEF fluorescence enhancement factor (F − Fmin)/Fmin ([2]; one-photon process) | FEF fluorescence enhancement factor (F − Fmin)/Fmin [2, 11] | λ^(1)max one-photon absorption wavelength ([3]; probe without added cation) [nm] | λ^flmax one-photon emission wavelength ([3]; probe without added cation) [nm] | Φ fluorescence photon efficiency ([3]; probe without added cation) | λ^(1)max one-photon absorption wavelength [3, 12] [nm] | λ^flmax one-photon emission wavelength [3, 12] [nm] | Φ fluorescence photon efficiency [3, 12] | Φ fluorescence quantum yield of the reference [4] | fluorescence response to Fe^2+, Cu^2+ and Co^2+ [5] | fluorescence response to Mg^2+, Zn^2+ and Mn^2+ [5] | solubility of BCa1 in water [6] | maximum emissions of the two Gaussian curves fitted to the emission spectrum [7] | FEF fluorescence enhancement factor (F − Fmin)/Fmin ([8]; one-photon process) | FEF fluorescence enhancement factor (F − Fmin)/Fmin [8, 11] | effect of pH on one-photon fluorescence intensity [9] | maximum emissions of the two Gaussian curves fitted to the emission spectrum [10]
1 | COc1ccccc1N1CCOCCOCCN(c2ccc(NC(=O)CN(C)c3ccc4cc(C(C)=O)ccc4c3)cc2OC)CCOCC1 [ANa1, reference compound] | 780 | 95 | 8(8) | 8(8) | 367 | 500 | 0.08 | 367 | 500 | 0.65 | – | – | – | – | – | – | – | – | –
2 | CCNc1cc2oc(=O)cc(C(F)(F)F)c2cc1C [coumarin 307] | – | – | – | – | – | – | – | – | – | – | 0.95 | – | – | – | – | – | – | – | –
3 | CN(CC(=O)Nc1ccc(N(CC(=O)O)CC(=O)O)c(OCC(=O)N2CCOCC2)c1)c1ccc2cc(-c3nc4ccccc4o3)ccc2c1 [BCa1] | 780 | 150 | – | – | 360 | 470 | 0.07 | 360 | 470 | 0.98 | – | no response at all | weak responses | about 5.0 μM | 430 nm and 460 nm | 13 | 14 | not affected by pH | 436 nm and 467 nm
